# Test results taken from US20190216779A1, “USE OF NEUROKININ-1 ANTAGONISTS TO TREAT A VARIETY OF PRURITIC CONDITIONS” (MENLO THERAPEUTICS INC., priority 2016, published 2019).
# What was measured:
# [1] = cited from earlier work
# [2] = Solubility test of serlopitant in Franz cell receptor solution; assay type: physicochemical
# [3] = In vitro skin permeation of serlopitant in topical formulations, Franz diffusion cell; assay type: in vitro ADME; conditions: topical formulations B and C, human skin, 37° C., LC-MS/MS
# Protocol: In vitro skin permeation of serlopitant in topical formulations A-D was evaluated using a Franz diffusion cell. FIG. 1 illustrates a Franz diffusion cell. A Franz diffusion cell having a circular permeation area of 4.15 cm^2 and a receptor chamber volume of 19 mL was set up with a thermo-regulated outer water jacket to maintain the temperature at 37° C. The receptor chamber was filled with 19 mL 1×PBS (pH 7.5) containing 10% ethanol and 1% Tween® 80.
# Human skin was pre-treated to remove all subcutaneous fat and was cleaned with 70% ethanol before use. The skin was visually inspected to ensure that it was free of any surface irregularity or small holes and was equally divided into four pieces. The skin was then mounted onto the receptor chamber with the stratum corneum side facing up. […]
# All samples were processed by solid-phase extraction (SPE) before LC-MS/MS analysis. […] Serlopitant concentrations in samples resulting from formulations A-D were determined by comparison to the standard. Serlopitant was not detected in samples resulting from topical formulations A and D, as expected. […] After an initial lag, serlopitant was detected by LC-MS/MS in the receptor chamber at 6 hours.
# The amount of serlopitant retained in the skin was determined at the end of the experiment. […] Extracted serlopitant was quantified by LC-MS/MS. […]
# [4] = test system: subjects with chronic pruritus; test: Phase II randomized, double-blind, placebo-controlled clinical study of serlopitant in chronic pruritus; assay type: in vivo, human; conditions: for 4-point responder rate (proportion of subjects achieving ≥4-point improvement on a 10-point scale) in the average VAS itch score: Week 6, placebo 26%; for relief of itch in the NRS score compared to placebo (secondary efficacy endpoint; data not shown) / relief of itch in the VAS score compared to placebo (primary efficacy endpoint): Weeks 4, 5 and 6
# Protocol: A well-controlled human clinical trial assessing the efficacy of serlopitant in the treatment of chronic pruritus was approved by an Institutional Review Board and was conducted in accordance with the International Conference on Harmonisation (ICH) Guidelines for Good Clinical Practices, the U.S. Code of Federal Regulations, the Health Insurance Portability and Accountability Act (HIPAA), and any local regulatory requirements. The study was a Phase II randomized, double-blind, parallel-group, placebo-controlled, multicenter trial designed to evaluate the efficacy and safety of serlopitant versus placebo in subjects with chronic pruritus.
# Subjects were randomized to receive a 0.25 mg, 1 mg or 5 mg tablet of serlopitant or a matching placebo tablet. Subjects took one tablet of serlopitant or placebo once daily by mouth for a total of 6 weeks following a loading dose of 3 tablets on the first day of treatment. The maximum study duration for each subject was about 12 weeks and included a screening period of up to 2 weeks, a treatment period of 6 weeks, and a follow-up period of 4 weeks. The screening period was extended up to 44 days if a washout period from any prohibited medications was required.
# [5] = test system: subjects with chronic pruritus and prurigo nodularis; test: Phase II randomized, double-blind, placebo-controlled clinical study of serlopitant in chronic pruritus due to prurigo nodularis; assay type: in vivo, human; conditions: for Mean difference Serlopitant − Placebo (SE) in change of average itch VAS score from baseline by repeated measures analysis: 5 mg once daily oral, 10 cm VAS
# Protocol: A well-controlled human clinical trial assessing the efficacy of serlopitant in the treatment of pruritus associated with prurigo nodularis (PN) was approved by an Institutional Review Board and was conducted in accordance with the ICH Guidelines for Good Clinical Practices. German regulations on recordkeeping of subject information, and any local regulatory requirements. The study was a Phase II randomized, double-blind, placebo-controlled, multicenter trial designed to evaluate the efficacy and safety of serlopitant versus placebo in subjects with PN. […] The subjects had chronic pruritus due to PN.
# Subjects were randomized to receive either a 5-mg tablet of serlopitant or a matching placebo tablet. Subjects took a tablet of serlopitant or placebo once daily by mouth for 8 weeks following a loading dose of 3 tablets on the first day of treatment. The maximum study duration for each subject was about 14 weeks and included a screening period of up to 4 weeks, a treatment period of 8 weeks, and a follow-up period of 2 weeks.
# At Baseline, the average itch VAS score (average itch over the past 24 hours) for the serlopitant group and the placebo group was 7.88 and 7.92, respectively. […] Furthermore, a once-daily 5 mg dose of serlopitant led to a 4-point responder rate (the proportion of subjects achieving ≥4-point improvement on a 10-point scale) of 54% with respect to the average itch VAS score at Week 8 compared to 25% for placebo.
# [6] = all three doses (0.25 mg, 1 mg, 5 mg once daily, 6 weeks)
smiles,measurement,setting,value
C[C@@H](O[C@H]1CC[C@@H]2CN(C3=CC(=O)CC3)C[C@H]2[C@@H]1c1ccc(F)cc1)c1cc(C(F)(F)F)cc(C(F)(F)F)c1 [Form I],thermodynamic stability of polymorph,[1]; Form I compared with Form II,thermodynamically more stable below 70 °C
same,hygroscopicity,[1]; all tested relative humidity conditions,non-hygroscopic
"C[C@@H](O[C@H]1CC[C@@H]2CN(C3=CC(=O)CC3)C[C@H]2[C@@H]1c1ccc(F)cc1)c1cc(C(F)(F)F)cc(C(F)(F)F)c1 [serlopitant, 3-[(3aR,4R,5S,7aS)-5-[(1R)-1-[3,5-bis(trifluoromethyl)phenyl]ethoxy]-4-(4-fluorophenyl)octahydro-2H-isoindol-2-yl]cyclopent-2-en-1-one]",solubility in receptor solution,"[2]; 1×PBS (pH 7.5) containing 10% ethanol and 1% Tween 80, 1 hour of incubation at 37° C.","remained soluble at concentrations of 0.5, 5 and 50 ug/mL"
same,change of solubility if Tween 80 was not used,[2]; receptor solution without Tween 80,decreased significantly
same,change of solubility if ethanol was not used,[2]; receptor solution without ethanol,decreased slightly
same,time at which serlopitant was detected in the receptor chamber after an initial lag,[3],6 h
same,Least squares mean % change from baseline in average VAS itch score,"[4]; 0.25 mg once daily oral, Week 1, n = 64",−9.1 ± 3.9%
same,Least squares mean % change from baseline in average VAS itch score,"[4]; 0.25 mg once daily oral, Week 2, n = 64",−14.9 ± 4.0%
same,Least squares mean % change from baseline in average VAS itch score,"[4]; 0.25 mg once daily oral, Week 3, n = 64",−21.4 ± 4.0%
same,Least squares mean % change from baseline in average VAS itch score,"[4]; 0.25 mg once daily oral, Week 4, n = 64",−29.0 ± 4.0%
same,Least squares mean % change from baseline in average VAS itch score,"[4]; 0.25 mg once daily oral, Week 5, n = 64",−32.4 ± 4.0%
same,Least squares mean % change from baseline in average VAS itch score,"[4]; 0.25 mg once daily oral, Week 6, n = 64",−34.1 ± 4.1%
same,Least squares mean % change from baseline in average VAS itch score,"[4]; 1 mg once daily oral, Week 1, n = 65",−11.8 ± 3.9%
same,Least squares mean % change from baseline in average VAS itch score,"[4]; 1 mg once daily oral, Week 2, n = 65",−22.0 ± 4.0%
same,Least squares mean % change from baseline in average VAS itch score,"[4]; 1 mg once daily oral, Week 3, n = 65",−30.2 ± 4.0%
same,Least squares mean % change from baseline in average VAS itch score,"[4]; 1 mg once daily oral, Week 4, n = 65, p < 0.05 vs placebo",−33.1 ± 4.0 %
same,Least squares mean % change from baseline in average VAS itch score,"[4]; 1 mg once daily oral, Week 5, n = 65, p < 0.05 vs placebo",−38.0 ± 4.1 %
same,Least squares mean % change from baseline in average VAS itch score,"[4]; 1 mg once daily oral, Week 6, n = 65, p < 0.05 vs placebo",−41.4 ± 4.0 %
same,Least squares mean % change from baseline in average VAS itch score,"[4]; 5 mg once daily oral, Week 1, n = 64",−12.0 ± 3.9%
same,Least squares mean % change from baseline in average VAS itch score,"[4]; 5 mg once daily oral, Week 2, n = 64",−20.3 ± 4.0%
same,Least squares mean % change from baseline in average VAS itch score,"[4]; 5 mg once daily oral, Week 3, n = 64",−28.8 ± 4.0%
same,Least squares mean % change from baseline in average VAS itch score,"[4]; 5 mg once daily oral, Week 4, n = 64, p < 0.05 vs placebo",−34.2 ± 4.0 %
same,Least squares mean % change from baseline in average VAS itch score,"[4]; 5 mg once daily oral, Week 5, n = 64, p < 0.05 vs placebo",−37.3 ± 4.0 %
same,Least squares mean % change from baseline in average VAS itch score,"[4]; 5 mg once daily oral, Week 6, n = 64, p < 0.05 vs placebo",−42.5 ± 4.1 %
same,intensity of all adverse events,[4]; [6],mild or moderate intensity
same,most common treatment-emergent adverse events,[4]; [6],"diarrhea, somnolence and headache in the low single-digit percent"
same,tolerability and safety profile,[4]; [6],well tolerated and exhibited an excellent safety profile
same,4-point responder rate (proportion of subjects achieving ≥4-point improvement on a 10-point scale) in the average VAS itch score,[4]; once-daily 1 mg dose,42%
same,relief of itch in the NRS score compared to placebo (secondary efficacy endpoint; data not shown),[4]; once-daily 1 mg dose,statistically significant improvement in relief of itch
same,relief of itch in the VAS score compared to placebo (primary efficacy endpoint),[4]; once-daily 1 mg dose,statistically significant improvement in relief of itch
same,4-point responder rate (proportion of subjects achieving ≥4-point improvement on a 10-point scale) in the average VAS itch score,[4]; once-daily 5 mg dose,53%
same,relief of itch in the NRS score compared to placebo (secondary efficacy endpoint; data not shown),[4]; once-daily 5 mg dose,statistically significant improvement in relief of itch
same,relief of itch in the VAS score compared to placebo (primary efficacy endpoint),[4]; once-daily 5 mg dose,statistically significant improvement in relief of itch
same,Mean difference Serlopitant − Placebo (SE) in change of average itch VAS score from baseline by repeated measures analysis,"[5]; Week 2, 95% CI (−1.5, −0.2), p 0.0111",−0.9 (0.34)
same,Mean difference Serlopitant − Placebo (SE) in change of average itch VAS score from baseline by repeated measures analysis,"[5]; Week 4, 95% CI (−1.8, −0.1), p 0.0248",−1.0 (0.43)
same,Mean difference Serlopitant − Placebo (SE) in change of average itch VAS score from baseline by repeated measures analysis,"[5]; Week 8, 95% CI (−2.6, −0.7), p 0.0005",−1.7 (0.47)
same,adverse event diarrhea (most common adverse events),"[5]; 5 mg once daily, 8 weeks",11%
same,adverse event nasopharyngitis (most common adverse events),"[5]; 5 mg once daily, 8 weeks",17%
same,intensity of treatment-emergent adverse events,"[5]; 5 mg once daily, 8 weeks",generally mild or moderate
same,tolerability and safety,"[5]; 5 mg once daily, 8 weeks",well tolerated and safe
same,improvement in pruritus on the IGA vs placebo,[5]; once-daily 5 mg dose,greater improvement
same,4-point responder rate with respect to the average itch VAS score,"[5]; once-daily 5 mg dose, Week 8, placebo 25%",54%
same,4-point responder rate with respect to the worst itch NRS score,"[5]; once-daily 5 mg dose, Week 8, placebo 26%",47%
same,proportion of subjects reporting “no/mild pruritus” on the VRS,"[5]; once-daily 5 mg dose, Week 8, placebo 28.9%",54.4%
same,proportion of subjects reporting improvement in pruritus on the PGA,"[5]; once-daily 5 mg dose, Week 8, placebo 54.3%",82.5%
same,decrease in the average itch VAS score from Baseline compared to placebo,"[5]; once-daily 5 mg dose, Weeks 2, 4, and 8",statistically significant decrease
same,improvement in the worst itch VAS score from Baseline to Week 8 vs placebo,"[5]; once-daily 5 mg dose, p=0.0024","statistically significantly, greater improvement"
same,decrease in the average itch NRS score from Baseline to Week 8 vs placebo,"[5]; once-daily 5 mg dose, p=0.0069",statistically significantly greater decrease
